According to ChEMBL document CHEMBL1212760, “First isolation of the blaOXA-23 carbapenemase gene from an environmental Acinetobacter baumannii isolate” (2010):
In brackets after ≈: the same amount, converted by molar mass.

Each compound was assayed on Acinetobacter baumannii (assay: Antimicrobial activity against Acinetobacter baumannii B9 containing carbapenemase blaOXA-23 gene assessed as growth inhibition by Etest method).
Assay type: functional
In the case of `NCC[C@H](O)C(=O)N[C@@H]1C[C@H](N)[C@@H](O[C@H]2O[C@H](CN)[C@@H](O)[C@H](O)[C@H]2O)[C@H](O)[C@H]1O[C@H]1O[C@H](CO)[C@@H](O)[C@H](N)[C@H]1O` [AMIKACIN], the MIC is reported as 8 µg/mL (≈ 13.7 µM).
`CC1(C)S[C@@H]2[C@H](NC(=O)[C@H](N)c3ccc(O)cc3)C(=O)N2[C@H]1C(=O)O` [AMOXICILLIN] was tested, and the MIC was > 256 µg/mL.
`C[C@H]1[C@H](NC(=O)/C(=N\OC(C)(C)C(=O)O)c2csc(N)n2)C(=O)N1S(=O)(=O)O` [AZTREONAM] showed an MIC of 32 µg/mL (≈ 73.5 µM).
For `CO/N=C(\C(=O)N[C@@H]1C(=O)N2C(C(=O)[O-])=C(C[N+]3(C)CCCC3)CS[C@H]12)c1csc(N)n1` [CEFEPIME], the MIC was > 256 µg/mL.
`CO/N=C(\C(=O)N[C@@H]1C(=O)N2C(C(=O)O)=C(COC(C)=O)CS[C@H]12)c1csc(N)n1` [CEFOTAXIME] was tested, and the MIC was > 256 µg/mL.
For `CO/N=C(\C(=O)N[C@@H]1C(=O)N2C(C(=O)[O-])=C(C[n+]3cccc4c3CCC4)CS[C@H]12)c1csc(N)n1` [CEFPIROME], the MIC was > 256 µg/mL.
`CC(C)(O/N=C(\C(=O)N[C@@H]1C(=O)N2C(C(=O)[O-])=C(C[n+]3ccccc3)CS[C@H]12)c1csc(N)n1)C(=O)O` [CEFTAZIDIME] was tested, and the MIC was > 256 µg/mL.
In the case of `CO/N=C(\C(=O)N[C@@H]1C(=O)N2C(C(=O)O)=C(COC(N)=O)CS[C@H]12)c1ccco1` [CEFUROXIME], the MIC is reported as > 256 µg/mL.
With `CC(=O)OCC1=C(C(=O)O)N2C(=O)[C@@H](NC(=O)Cc3cccs3)[C@H]2SC1` [CEPHALOTHIN] the MIC was > 256 µg/mL.
`O=C(O)c1cn(C2CC2)c2cc(N3CCNCC3)c(F)cc2c1=O` [CIPROFLOXACIN] was tested, and the MIC was > 32 µg/mL.
For `C[C@@H](O)[C@H]1C(=O)N2C(C(=O)O)=C(S[C@@H]3CN[C@H](C(=O)Nc4cccc(C(=O)O)c4)C3)[C@H](C)[C@H]12` [ERTAPENEM], the MIC was > 32 µg/mL.
`C[C@@H](O)[C@H]1C(=O)N2C(C(=O)O)=C(SCCNC=N)C[C@H]12` [IMIPENEM ANHYDROUS] gave an MIC of 48 µg/mL (≈ 160 µM).
`C[C@@H](O)[C@H]1C(=O)N2C(C(=O)O)=C(S[C@@H]3CN[C@H](C(=O)N(C)C)C3)[C@H](C)[C@H]12` [MEROPENEM] showed an MIC of 24 µg/mL (≈ 62.6 µM).
With `CO[C@@]1(NC(=O)C(C(=O)O)c2ccc(O)cc2)C(=O)N2C(C(=O)O)=C(CSc3nnnn3C)CO[C@@H]21` (stereo partly specified) [MOXALACTAM] the MIC was > 256 µg/mL.
In the case of `CCn1cc(C(=O)O)c(=O)c2ccc(C)nc21` [NALIDIXIC ACID], the MIC is reported as > 256 µg/mL.
With `CCN[C@@H]1C[C@H](N)[C@@H](O[C@H]2OC(CN)=CC[C@H]2N)[C@H](O)[C@H]1O[C@H]1OC[C@](C)(O)[C@H](NC)[C@H]1O` [NETILMICIN] the MIC was 8 µg/mL (≈ 16.8 µM).
`CC1COc2c(N3CCN(C)CC3)c(F)cc3c(=O)c(C(=O)O)cn1c23` (stereo unspecified) [OFLOXACIN] was tested, and the MIC was > 32 µg/mL.
In the case of `CCn1cc(C(=O)O)c(=O)c2cc(F)c(N3CCN(C)CC3)cc21` [PEFLOXACIN], the MIC is reported as > 256 µg/mL.
With `CCN1CCN(C(=O)N[C@@H](C(=O)N[C@@H]2C(=O)N3[C@@H]2SC(C)(C)[C@@H]3C(=O)O)c2ccccc2)C(=O)C1=O` [PIPERACILLIN] the MIC was > 256 µg/mL.
For `CC1(C)S[C@@H]2[C@H](NC(=O)[C@H](C(=O)O)c3ccsc3)C(=O)N2[C@H]1C(=O)O` [TICARCILLIN], the MIC was > 256 µg/mL.
For GENTAMICIN, the MIC was 8 µg/mL.
